Columns and labels:
spirochetes = assay: Case study Patient A: penicillin G, then with Lycopene and Allicin, for neuro-spirochetosis; assay type: in vivo, human; settings: 24 million units per day intravenously every 4 hours, after a few days
Description: A patient (below, “Patient A”) was hospitalized on 10 Jun. 2019 and reported the following symptoms: • Fatigue; • Rash similar to a syphilis rash Patient A experienced 6 months previous; • Blurred vision; and • Headache and impaired thinking.
Based on the above results Patient A was treated with aqueous crystalline penicillin G 24 million units per day, administered intravenously every 4 hours.
On 23 Feb. […] However, other spirochetes were present which could create systemic infection. Among these bacteria, Patient A had Brachyspira, a slow-growing anaerobic spirochete that can colonize the large intestine of animals including humans. While Brachyspira is known for causing diarrhea, it was recently discovered that it could also attack other organs. It was found in the Alzheimer's brain (Miklossy, 2011 [16]) and has been recently been associated with other human chronic conditions (Hampson, 2017 [17]). One human experimental infection was recently performed, where a volunteer drank cultures of Brachyspira isolated from an Australian Aboriginal child with diarrhea, and reported headaches, among other symptoms. (Hampson, 2017 [18]).
After a number of medical consultations, Patient A agreed to follow a non-standard protocol, extending penicillin treatment s to a 6+week course for neuro-spirochetosis. […]

gray hair = assay: Case study Patient A: hydroxychloroquine and curcumin added at end of therapy, gray hair; assay type: in vivo, human; settings: hydroxychloroquine 200 mg per day for one month plus curcumin 3 g per day, added at end of therapy (FIG. 7)
Excerpt: Patient reported the following improvements—including the *very surprising* disappearance of minor symptoms they had not been aware of beforehand. A summary follows: • Eyes. Vision blur resolved almost completely. • Brain. Improved cognitive functions short-and-long-term memory (they reported faster typing). • Numbness. Some minor parts of their body that had been numb since the 2008 neuropathy, such as the tips of the toes, started to regain sensitivity. • Body. Even in a condition of little exercise while being hospitalized the patient lost about 5 kg in 2 weeks and seemed more toned and in generally better condition (FIG. 2). • Asthma. Patient A reported better breathing. […] Joints in hands started swelling, and then healing (see FIG. 5). Arthritis has been reported both with spirochetes and Chlamydia Pneumoniae infections (Steere, 1987 [19], Porritt, 2016 [20]). • Prostate. Patient A never had prostate problems. However, they reported a larger urine flow and more frequent nocturnal penile tumescence. • Skin. Lesions and sclerotic plaques on their hands, which dated back from 2008, started healing. They resembled a sub-clinical manifestation of Acrodermatitis Chronica Atrophicans, which appears in phase 3 of European borreliosis (see FIG. 3). Incidentally, the healing process highlighted a small-scale bull's eye patterns, with a white patch and a red dot at the center (FIG. 4). […]

Structure (SMILES): CC1(C)S[C@@H]2[C@H](NC(=O)Cc3ccccc3)C(=O)N2[C@H]1C(=O)O [aqueous crystalline penicillin G, penicillin G]
- Effect of therapy (patient feeling better, vision improving) (spirochetes): seemed effective

Structure (SMILES): COc1cc(/C=C/C(=O)CC(=O)/C=C/c2ccc(O)c(OC)c2)ccc1O [curcumin]
- Reversal of gray hair (gray hair): partial reversal of gray hair

Structure (SMILES): CCN(CCO)CCCC(C)Nc1ccnc2cc(Cl)ccc12 (stereo not drawn) [hydroxychloroquine]
- Reversal of gray hair (gray hair): partial reversal of gray hair

— patent US20240148717A1, “COMBINATION THERAPY FOR TREATMENT OF CONDITIONS ASSOCIATED WITH AGING” (priority 2021, published 2024)
